Measured values: patent publication US20260042762A1 (Kymera Therapeutics, Inc., priority 2018, published 2026)

molecular target: T1, MerTK (Homo sapiens, UniProt Q12866); assay: MerTk degradation in Jurkat cells (Western blot); format: cell-based; settings: 0.001-1 μM, 4 hour-incubation at 37° C.
T1 construct: endogenous in cells; host or cells: Jurkat cells
T1 sequence (Q12866 21-999): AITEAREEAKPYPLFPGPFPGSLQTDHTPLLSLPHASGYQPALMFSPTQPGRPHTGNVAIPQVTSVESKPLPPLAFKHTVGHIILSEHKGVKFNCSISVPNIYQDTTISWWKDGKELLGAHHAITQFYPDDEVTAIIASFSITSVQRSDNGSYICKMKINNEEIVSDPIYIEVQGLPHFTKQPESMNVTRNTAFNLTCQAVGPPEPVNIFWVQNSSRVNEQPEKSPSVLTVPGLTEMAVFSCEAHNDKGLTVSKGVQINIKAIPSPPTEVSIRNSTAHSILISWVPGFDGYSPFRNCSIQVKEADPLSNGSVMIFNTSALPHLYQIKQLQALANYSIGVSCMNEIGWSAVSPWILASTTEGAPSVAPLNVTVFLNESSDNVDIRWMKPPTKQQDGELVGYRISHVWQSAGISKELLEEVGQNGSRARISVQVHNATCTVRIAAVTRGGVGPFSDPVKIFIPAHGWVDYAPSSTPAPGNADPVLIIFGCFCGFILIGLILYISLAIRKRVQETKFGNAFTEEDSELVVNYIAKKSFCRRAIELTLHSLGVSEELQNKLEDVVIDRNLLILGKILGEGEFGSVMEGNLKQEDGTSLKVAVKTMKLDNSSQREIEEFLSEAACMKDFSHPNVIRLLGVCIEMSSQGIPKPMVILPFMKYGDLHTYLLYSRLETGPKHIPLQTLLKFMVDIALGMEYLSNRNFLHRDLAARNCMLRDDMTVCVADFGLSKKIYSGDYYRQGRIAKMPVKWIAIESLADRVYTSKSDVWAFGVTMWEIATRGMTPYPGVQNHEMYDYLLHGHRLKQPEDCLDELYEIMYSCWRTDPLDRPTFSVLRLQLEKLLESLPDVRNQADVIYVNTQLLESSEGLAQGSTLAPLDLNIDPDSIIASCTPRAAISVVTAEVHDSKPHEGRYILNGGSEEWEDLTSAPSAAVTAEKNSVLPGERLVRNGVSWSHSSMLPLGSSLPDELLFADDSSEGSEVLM
In short: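 Jurkat cells treated 4 h at 37 °C with compound at 0.001-1 μM final. RIPA lysates quantified by BCA, then MerTK probed by Western blot against actin loading control with IR-dye secondaries and Odyssey imaging.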

Row | SMILES | Jurkat Max % MerTK Degradation
1 | C[C@H](CC(F)(F)F)Nc1ncc2c(-c3ccc(CN4CCN(CCCO[C@H]5CCN(Cc6ccc7c(c6)n(C)c(=O)n7C6CCC(=O)NC6=O)C5)CC4)cc3)cn([C@H]3CC[C@H](O)CC3)c2n1 (stereo partly drawn) [I-210, 3-(3-methyl-2-oxo-5-[[(3R)-3-(3-[4-[(4-[7-[trans-4-hydroxycyclohexy1]-2-[[(2S)-4,4,4-trifluorobutan-2-yl]amino]pyrrolo[2,3-d]pyrimidin-5-yl]phenyl)methyl]piperazin-1-yl]propoxy)pyrrolidin-1-yl]methyl]-1,3-benzodiazol-1-yl)piperidine-2,6-dione] | C (maximum MerTK degradation less than or equal to 20% (≤20%))

same assay, conditions: Jurkat, 4 h, 0.001-1 μM, 4 hour-incubation at 37° C., read-out: Jurkat Max % MerTK Degradation

Row | Dmax | SMILES
2 | < 20% | O=C(c1ccc(CNCc2ccc(-c3ccc4c(cnn4CC4CC4)c3)cc2)cc1)N1CCC(C2CCN(Cc3ccc(-c4cn([C@H]5CC[C@H](O)CC5)c5nc(NCCC(F)(F)F)ncc45)cc3)CC2)CC1 [I-202, (4-(((4-(1-(cyclopropylmethyl)-1H-indazol-5-yl)benzyl)amino)methyl)phenyl)(1′-(4-(7-(trans-4-hydroxycyclohexyl)-2-((3,3,3-trifluoropropyl)amino)-7H-pyrrolo[2,3-d]pyrimidin-5-yl)benzyl)-[4,4′-bipiperidin]-1-yl)methanone; formic acid]
3 | 20 to 50% | CN1CCN(Cc2ccc(-c3ccc(CO[C@H]4CCC[C@@H]4NC(=O)c4cc(-c5cnn(CCOCCOCCOCCCc6ccc7c(c6)n(C)c(=O)n7C6CCC(=O)NC6=O)c5)cnc4N)cc3)cc2)CC1 (stereo partly drawn) [I-203, 2-Amino-5-(1-[2-[2-(2-[3-[1-(2,6-dioxopiperidin-3-yl)-3-methyl-2-oxo-1,3-benzodiazol-5-yl]propoxy]ethoxy)ethoxy]ethyl]pyrazol-4-yl)-N-[(1S,2S)-2-([4-[(4-methylpiperazin-1-yl)methyl]-[1,1-biphenyl]-4-yl]methoxy)cyclopentyl]pyridine-3-carboxamide]
4 | 20 to 50% | CN1CCN(Cc2ccc(-c3ccc(CO[C@H]4CCC[C@@H]4NC(=O)c4cc(-c5cnn(CCOCCOCCOCCCc6cccc7c6n(C)c(=O)n7C6CCC(=O)NC6=O)c5)cnc4N)cc3)cc2)CC1 (stereo partly drawn) [I-204, 2-Amino-5-(1-[2-[2-(2-[3-[1-(2,6-dioxopiperidin-3-yl)-3-methyl-2-oxo-1,3-benzodiazol-4-yl]propoxy]ethoxy)ethoxy]ethyl]pyrazol-4-yl)-N-[(1S,2S)-2-([4-[(4-methylpiperazin-1-yl)methyl]-[1,1-biphenyl]-4-yl]methoxy)cyclopentyl]pyridine-3-carboxamide]
5 | > 50% | CCC[C@H](C)Nc1ncc2c(n1)n([C@H]1CC[C@H](O)CC1)cc2[C@H]1CC[C@@H](CN2CCN(CCCOC3CCN(Cc4ccc5c(c4)n(C)c(=O)n5C4CCC(=O)NC4=O)CC3)CC2)CC1 (stereo partly drawn) [I-207]
6 | > 50% | CCC[C@H](C)Nc1ncc2c(n1)n([C@H]1CC[C@H](O)CC1)cc2[C@H]1CC[C@H](CN2CCN(CCCOC3CCN(Cc4ccc5c(c4)n(C)c(=O)n5C4CCC(=O)NC4=O)CC3)CC2)CC1 (stereo partly drawn) [I-208, 3-[3-methyl-2-oxo-5-([4-[3-(4-[[trans-4-[2-[(2S)-pentan-2-ylamino]-7-[trans-4-hydroxycyclohexyl]pyrrolo[2,3-d]pyrimidin-5-yl]cyclohexyl]methyl]piperazin-1-yl)propoxy]piperidin-1-yl]methyl)-1,3-benzodiazol-1-yl]piperidine-2,6-dione]
7 | > 50% | CCC[C@H](C)Nc1ncc2c(n1)n([C@H]1CC[C@H](O)CC1)cc2[C@H]1CC[C@H](CN2CCN(CCCO[C@H]3CCN(Cc4ccc5c(c4)n(C)c(=O)n5C4CCC(=O)NC4=O)C3)CC2)CC1 (stereo partly drawn) [I-211, 3-(3-methyl-2-oxo-5-[[(3S)-3-[3-(4-[[trans-4-[2-[(2S)-pentan-2-ylamino]-7-[trans-4-hydroxycyclohexyl]pyrrolo[2,3-d]pyrimidin-5-yl]cyclohexyl]methyl]piperazin-1-yl)propoxy]pyrrolidin-1-yl]methyl]-1,3-benzodiazol-1-yl)piperidine-2,6-dione]
8 | > 50% | Cc1ncsc1-c1ccc(CNC(=O)[C@@H]2C[C@@H](O)CN2C(=O)[C@@H](NC(=O)C2(F)CC2)C(C)(C)C)c(OCCCCCCN2CCN(Cc3ccc(-c4cn([C@H]5CC[C@H](O)CC5)c5nc(NCCC(F)(F)F)ncc45)cc3)CC2)c1 [I-212, (2S,4R)-1-[(2S)-2-[(1-fluorocyclopropyl)formamido]-3,3-dimethylbutanoyl]-4-hydroxy-N-[[4-(4-methyl-1,3-thiazol-5-yl)-2-[(6-[4-[(4-[7-[trans-4-hydroxycyclohexyl]-2-[(3,3,3-trifluoropropyl)amino]pyrrolo[2,3-d]pyrimidin-5-yl]phenyl)methyl]piperazin-1-yl]hexyl)oxy]phenyl]methyl]pyrrolidine-2-carboxamide]
9 | > 50% | Cc1ncsc1-c1ccc(CNC(=O)[C@@H]2C[C@@H](O)CN2C(=O)[C@@H](NC(=O)C2(F)CC2)C(C)(C)C)c(OCCCCCCCN2CCN(Cc3ccc(-c4cn([C@H]5CC[C@H](O)CC5)c5nc(NCCC(F)(F)F)ncc45)cc3)CC2)c1 [I-213, (2S,4R)-1-[(2S)-2-[(1-fluorocyclopropyl)formamido]-3,3-dimethylbutanoyl]-4-hydroxy-N-[[4-(4-methyl-1,3-thiazol-5-yl)-2-[(7-[4-[(4-[7-[trans-4-hydroxycyclohexyl]-2-[(3,3,3-trifluoropropyl)amino]pyrrolo[2,3-d]pyrimidin-5-yl]phenyl)methyl]piperazin-1-yl]heptyl)oxy]phenyl]methyl]pyrrolidine-2-carboxamide]
10 | > 50% | Cc1ncsc1-c1ccc(CNC(=O)[C@@H]2C[C@@H](O)CN2C(=O)[C@@H](NC(=O)C2(F)CC2)C(C)(C)C)c(OCCOCCOCCN2CCN(Cc3ccc(-c4cn([C@H]5CC[C@H](O)CC5)c5nc(NCCC(F)(F)F)ncc45)cc3)CC2)c1 [I-214, (2S,4R)-1-[(2S)-2-[(1-fluorocyclopropyl)formamido]-3,3-dimethylbutanoyl]-4-hydroxy-N-[[4-(4-methyl-1,3-thiazol-5-yl)-2-[2-[2-(2-[4-[(4-[7-[trans-4-hydroxycyclohexyl]-2-[(3,3,3-trifluoropropyl)amino]pyrrolo[2,3-d]pyrimidin-5-yl]phenyl)methyl]piperazin-1-yl]ethoxy)ethoxy]ethoxy]phenyl]methyl]pyrrolidine-2-carboxamide]
11 | > 50% | C[C@@H](Nc1ncc2c(-c3ccc(CN4CCN(CCCOCCCc5ccc6c(c5)n(C)c(=O)n6C5CCC(=O)NC5=O)CC4)cc3)cn([C@H]3CC[C@H](O)CC3)c2n1)C(F)F (stereo partly drawn) [I-215]
12 | > 50% | C[C@H](Nc1ncc2c(-c3ccc(CN4CCN(CCCOCCCc5ccc6c(c5)n(C)c(=O)n6C5CCC(=O)NC5=O)CC4)cc3)cn([C@H]3CC[C@H](O)CC3)c2n1)C(F)F (stereo partly drawn) [I-216]
13 | 20 to 50% | CN1CCN(Cc2ccc(-c3ccc(CO[C@H]4CCC[C@@H]4NC(=O)c4cc(-c5cnn(CCOCCCc6ccc7c(c6)n(C)c(=O)n7C6CCC(=O)NC6=O)c5)cnc4N)cc3)cc2)CC1 (stereo partly drawn) [I-217, 2-Amino-5-[1-(2-[3-[1-(2,6-dioxopiperidin-3-yl)-3-methyl-2-oxo-1,3-benzodiazol-5-yl]propoxy]ethyl)pyrazol-4-yl]-N-[(1S,2S)-2-([4-[(4-methylpiperazin-1-yl)methyl]-[1,1-biphenyl]-4-yl]methoxy)cyclopentyl]pyridine-3-carboxamide]
14 | < 20% | CN1CCN(Cc2ccc(-c3ccc(CO[C@H]4CCC[C@@H]4NC(=O)c4cc(-c5cnn(CCOCCCc6cccc7c6n(C)c(=O)n7C6CCC(=O)NC6=O)c5)cnc4N)cc3)cc2)CC1 (stereo partly drawn) [I-218, 2-Amino-5-[1-(2-[3-[1-(2,6-dioxopiperidin-3-yl)-3-methyl-2-oxo-1,3-benzodiazol-4-yl]propoxy]ethyl)pyrazol-4-yl]-N-[(1S,2S)-2-([4-[(4-methylpiperazin-1-yl)methyl]-[1,1-biphenyl]-4-yl]methoxy)cyclopentyl]pyridine-3-carboxamide]

Row | SMILES | Dmax
15 | CCC[C@H](C)Nc1ncc2c(n1)n([C@H]1CC[C@H](O)CC1)cc2[C@H]1CC[C@@H](CN2CCN(C3CC(OCCc4ccc5c(c4)n(C)c(=O)n5C4CCC(=O)NC4=O)C3)CC2)CC1 (stereo partly drawn) [I-206, 3-(3-methyl-2-oxo-5-[2-[3-(4-[cis-4-[2-[(2S)-pentan-2-ylamino]-7-[trans-4-hydroxycyclohexyl]pyrrolo[2,3-d]pyrimidin-5-yl]cyclohexyl]methyl]piperazin-1-yl)cyclobutoxylethyl]-1,3-benzodiazol-1-y1)piperidine-2,6-dione] | > 50%
